The results in this text go back to ChEMBL document CHEMBL1123115, “Synthesis and antiviral activity of 11-azapentacyclo[6.2.1.0.0.0]decane” (J Med Chem, 1985).

In assay [1] the test system is Human alphaherpesvirus 1. The assay can be described thus: Effect on herpes simplex virus HSV-1; Ineffective. Type of assay: functional, organism-based.
Assay [2] concerns Human alphaherpesvirus 2. Nature of the assay: Effect on herpes simplex virus HSV-2; Ineffective. Type of assay: functional, organism-based.

As to `C1C2C3CC4C1C1C2NC3C41` (configuration not stated), the Activity entry in assay [1] and in assay [2] was “Ineffective” each time.
